Laboratory results from patent publication US4081433A, “D-Nle^4 -somatostatin and analogues thereof” (American Home Products Corporation, priority 1977, dated 1978).
Bridge positions count the residues as written; N and C are the ends. Square brackets hold non-standard residues; d marks the D form. Peptide text beside a SMILES is read from it. dNle = CCCC[C@@H](N)C(=O)O

Test system: growth hormone
Assay: Arginine-stimulated growth hormone secretion in Nembutal-anaesthetised rats
Assay type: in vivo
Details: albino male rats, 1 mg/kg subcutaneous
Experimental: The activity of the product of the preceding preparatory example, (D-Nle^4)Somatostatin, was determined by the following procedure:
Albino male rats were administered Nembutal intraperitoneally at a dose of 50 milligrams per kilogram. Fifteen minutes later a subcutaneous injection of the test compound or physiological saline was administered. Ten minutes later 0.5 milliliters of arginine (300 millligrams per milliliter, pH 7.2) is injected into the heart. Five minutes after receipt of the arginine the rats are decapitated and blood is collected into trasylol-EDTA.

Q: Which “reducing secretion of growth hormone (in words)” value does the source give for `CCCC[C@H]1NC(=O)[C@@H](NC(=O)CNC(=O)[C@H](C)N)CSSC[C@@H](C(=O)O)NC(=O)[C@H](CO)NC(=O)[C@H]([C@@H](C)O)NC(=O)[C@H](Cc2ccccc2)NC(=O)[C@H]([C@@H](C)O)NC(=O)[C@H](CCCCN)NC(=O)[C@H](Cc2c[nH]c3ccccc23)NC(=O)[C@H](Cc2ccccc2)NC(=O)[C@H](Cc2ccccc2)NC(=O)[C@H](CC(N)=O)NC1=O` [(D-Nle^4)Somatostatin, L-Alanyl-glycyl-L-cysteinyl-D-norleucyl-L-asparaginyl-L-phenylalanyl-L-phenylalanyl-L-tryptophyl-L-lysyl-L-threonyl-L-phenylalanyl-L-threonyl-L-seryl- L-cysteine cyclic (1.revreaction.14) disulfide] (H-AGC[dNle]NFFWKTFTSC-OH; disulfide 3-14) here?
A: effective agent for reducing secretion of growth hormone

Q: And the “growth hormone in blood” value (arginine injected 10 min later, blood 5 min after arginine, control 208±52 ng/ml, p<0.05)?
A: 83 ± 23 ng/mL
